Where two headings read alike, the source gives them in different places. Non-standard residues stand in square brackets, D forms with d. No end group written: not given here. *: point of attachment. Biotin = O=C1N[C@H]2[C@H](CS[C@H]2CCCCC(=O)*)N1; Dap = NC[C@H](N)C(=O)O; Ahx = NCCCCCC(=O)O
Assays:
mouse GOAT [1] = target: T1, mouse GOAT (Mus musculus, UniProt P0C7A3); experiment: Microsomal ghrelin octanoyltransferase assay; details: for Vmax (apparent): ghrelin substrate varied, 25 μg microsome protein (2 ng GOAT); for Vmax (apparent) / maximum reaction rate, fold lower than for the natural Ser analogs: 1 μM octanoyl-CoA; for Vmax (apparent) / Km / Vmax (apparent) for octanoyl-CoA: 50 μM palmitoyl-CoA, 1 min at 30°C; for maximum reaction rate, fold lower than for the natural Ser analogs: relative to the Ser3 analog; for Km: read-out: Km (apparent) for octanoyl-CoA; for Km / Vmax (apparent) for octanoyl-CoA: 25 μg microsome protein
T1 sequence (P0C7A3 1-435): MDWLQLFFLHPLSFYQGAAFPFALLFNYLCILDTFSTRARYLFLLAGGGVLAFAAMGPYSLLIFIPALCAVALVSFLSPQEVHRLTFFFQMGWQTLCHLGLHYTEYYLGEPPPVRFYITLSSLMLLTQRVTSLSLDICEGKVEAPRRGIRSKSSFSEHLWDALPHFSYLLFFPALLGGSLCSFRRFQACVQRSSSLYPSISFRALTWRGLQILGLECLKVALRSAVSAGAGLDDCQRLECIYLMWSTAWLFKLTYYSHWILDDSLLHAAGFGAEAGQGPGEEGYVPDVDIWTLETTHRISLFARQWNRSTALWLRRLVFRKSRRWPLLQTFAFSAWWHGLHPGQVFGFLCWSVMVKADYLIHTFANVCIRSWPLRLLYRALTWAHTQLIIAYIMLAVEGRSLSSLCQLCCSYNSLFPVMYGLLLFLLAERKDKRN

GOAT = details: ref [33], cited from earlier work; for Km: read-out: published Km, published values
[2] = cited from earlier work
mouse GOAT [3] = target: T1, mouse GOAT; experiment: Ghrelin octanoyltransferase assays at varying pH; assay type: biochemical; details: 7.5 μM and 100 μM substrate, 1 min, Bis-Tris propane pH 6–9

## GS[Dap]FLSPEHQRVQQRKESKKPPAKLQPK(Biotin)G [Dap3-Ghrelin27]
Mouse GOAT [1]
  Vmax (apparent): 85 ± 5 nmol/min/mg
  maximum reaction rate, fold lower than for the natural Ser analogs: approximately 2 fold

## CCCCCCCC(=O)SCCNC(=O)CCNC(=O)[C@H](O)C(C)(C)COP(=O)(O)OP(=O)(O)OC[C@H]1O[C@@H](n2cnc3c(N)ncnc32)[C@H](O)[C@@H]1OP(=O)(O)O [Octanoyl-CoA, reference compound]
GOAT
  Km: 0.6 µM
GOAT; with 50 μM palmitoyl-CoA, under the conditions of the assay
  microsomal octanoyl-CoA hydrolysis: < 25%
Mouse GOAT [1]; vs 10 μM Ghrelin27
  Km: 0.44 ± 0.04 µM
  Vmax (apparent) for octanoyl-CoA: 250 ± 8 nmol/min/mg
Mouse GOAT [1]; vs 80 μM Ghrelin10
  Km: 0.81 ± 0.04 µM
  Vmax (apparent) for octanoyl-CoA: 190 ± 4 nmol/min/mg

## NCC(N)C(=O)O (stereo not shown) [amino-Ala, 2,3-diaminoproprionic acid]
[2]; peptide-incorporated residue, ref [36]
  sidechain pKa (RNH3+ to RNH2): ~ 8

## GS(Dap)FLSPEHQ(Ahx)K(Biotin)G [Dap3-Ghrelin10]
Mouse GOAT [3]
  variation of octanoylation rate across pH 6–9: ≤ 2 fold
Mouse GOAT [1]
  Vmax (apparent): 74 ± 8 nmol/min/mg
  maximum reaction rate, fold lower than for the natural Ser analogs: approximately 2 fold

## GSSFLSPEHQ[Ahx]K(Biotin)G [Ghrelin10]
Mouse GOAT [3]
  variation of octanoylation rate across pH 6–9: ≤ 2 fold
Mouse GOAT [1]
  Vmax (apparent): 160 ± 10 nmol/min/mg
Mouse GOAT [1]; relative to Ghrelin27
  fold higher apparent Km than Ghrelin27: ~ 10 fold

## GSSFLSPEHQRVQQRKESKKPPAKLQPK (Biotin)G (GSSFLSPEHQRVQQRKESKKPPAKLQPK-{Gly(Biotin)}; not fully specified) [Ghrelin27]
Mouse GOAT [1]
  Vmax (apparent): 230 ± 10 nmol/min/mg
Mouse GOAT [1]; relative to Ghrelin10
  fold lower apparent Km relative to Ghrelin10: 10 fold

## N[C@@H](CO)C(=O)O [Ser]
[2]; ref [37]
  sidechain pKa (ROH to RO-): ~ 13

B1: proghrelin-His8: proghrelin with His8 tag; proghrelin is likely the natural substrate for GOAT (protein, UniProt Q9UBU3 24-117, looked up)
pro-form: GSSFLSPEHQRVQQRKESKKPPAKLQPRALAGWLRPEDGGQAEGAEDELEVRFNAPFDVGIKLSGVQYQQHSQALGKFLQDILWEEAKEAPADK
modifications: pro-form His8 tag
GOAT
  Km: 6 µM
